Test results reported in patent US20230373952A1, “LACTAM COMPOUNDS AS Kv1.3 POTASSIUM SHAKER CHANNEL BLOCKERS” (D.E. Shaw Research, LLC, priority 2020, published 2023).

Columns and labels:
hERG channel = hERG channel (Homo sapiens, UniProt Q12809); test: cell-based
Procedure: This assay is used to evaluate the disclosed compounds' inhibition activities against the hERG channel.
CHO-K1 cells stably expressing hERG were grown in Ham's F-12 Medium with glutamine containing 10% heat-inactivated FBS, 1% penicillin/streptomycin, hygromycin (100 μg/ml) and G418 (100 μg/ml). Cells were grown in culture flasks at 37° C. in a 5% CO2-humidified incubator.
All compounds were dissolved in DMSO at 30 mM. Compound stock solutions were freshly diluted with external solution to concentrations of 30 nM, 100 nM, 300 nM, 1 μM, 3 μM, 10 μM, 30 μM and 100 μM. The highest content of DMSO (0.3%) was present in 100 μM.
The voltage protocol (see Table I) was designed to simulate voltage changes during a cardiac action potential with a 300 ms depolarization to +20 mV (analogous to the plateau phase of the cardiac action potential), a repolarization for 300 ms to −50 mV (inducing a tail current) and a final step to the holding potential of −80 mV. The pulse frequency was 0.3 Hz. Control (compound-free) and compound pulse trains for each compound concentration applied contained 70 pulses.
Whole-cell current recordings and compound application were enabled by means of an automated patch clamp platform Patchliner (Nanion). EPC 10 patch clamp amplifier (HEKA) along with Patchmaster software (HEKA Elektronik Dr. Schulze GmbH) was used for data acquisition. Data were sampled at 10 kHz without filtering. Increasing compound concentrations were applied consecutively to the same cell without washouts in between.
AUC and PEAK values were obtained with Patchmaster (HEKA Elektronik Dr. Schulze GmbH). To determine IC50 the last single pulse in the pulse train corresponding to a given compound concentration was used. Obtained AUC and PEAK values in the presence of compound were normalized to control values in the absence of compound.

Kv1.3 potassium channel = target: T1, Kv1.3 potassium channel (Homo sapiens, UniProt P22001); test: Kv1.3 potassium channel blocker activity, automated whole-cell patch clamp (Patchliner); format: cell-based; settings: CHO-K1 cells stably expressing Kv1.3; whole-cell current inhibition, Hill fit; read-out: Kv1.3 IC50
T1 construct: expressed in transfected cells
Procedure: CHO-K1 cells stably expressing Kv1.3 were grown in DMEM containing 10% heat-inactivated FBS, 1 mM sodium pyruvate, 2 mM L-glutamine and G418 (500 μg/ml).
The currents were evoked by applying 100 ms depolarizing pulses from −90 mV (holding potential) to +40 mV were applied with 0.1 Hz frequency. […] 10-second breaks were used between pulse trains (see Table H below).
Passive leak currents were subtracted online using a P/4 procedure (HEKA Elektronik Dr. Schulze GmbH). […] Total compound incubation time before the next pulse train was not longer than 10 seconds. Peak current inhibition was observed during compound equilibration.

T1 sequence (P22001 whole entry): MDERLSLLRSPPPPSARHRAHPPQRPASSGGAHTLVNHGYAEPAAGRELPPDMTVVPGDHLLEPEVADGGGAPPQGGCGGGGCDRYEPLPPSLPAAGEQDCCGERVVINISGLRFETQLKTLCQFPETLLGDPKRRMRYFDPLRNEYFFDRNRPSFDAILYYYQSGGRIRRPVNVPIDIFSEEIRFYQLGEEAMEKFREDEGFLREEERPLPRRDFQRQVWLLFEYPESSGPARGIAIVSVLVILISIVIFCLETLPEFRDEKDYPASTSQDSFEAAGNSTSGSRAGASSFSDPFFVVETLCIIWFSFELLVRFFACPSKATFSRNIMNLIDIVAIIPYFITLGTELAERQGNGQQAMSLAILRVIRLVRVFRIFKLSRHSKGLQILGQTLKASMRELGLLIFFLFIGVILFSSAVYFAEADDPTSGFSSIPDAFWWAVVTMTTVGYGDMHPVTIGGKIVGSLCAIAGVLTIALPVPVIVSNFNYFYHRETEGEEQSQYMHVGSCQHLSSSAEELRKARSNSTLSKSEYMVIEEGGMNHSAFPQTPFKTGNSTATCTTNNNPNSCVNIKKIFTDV
Sequence of hERG channel (Q12809 whole entry): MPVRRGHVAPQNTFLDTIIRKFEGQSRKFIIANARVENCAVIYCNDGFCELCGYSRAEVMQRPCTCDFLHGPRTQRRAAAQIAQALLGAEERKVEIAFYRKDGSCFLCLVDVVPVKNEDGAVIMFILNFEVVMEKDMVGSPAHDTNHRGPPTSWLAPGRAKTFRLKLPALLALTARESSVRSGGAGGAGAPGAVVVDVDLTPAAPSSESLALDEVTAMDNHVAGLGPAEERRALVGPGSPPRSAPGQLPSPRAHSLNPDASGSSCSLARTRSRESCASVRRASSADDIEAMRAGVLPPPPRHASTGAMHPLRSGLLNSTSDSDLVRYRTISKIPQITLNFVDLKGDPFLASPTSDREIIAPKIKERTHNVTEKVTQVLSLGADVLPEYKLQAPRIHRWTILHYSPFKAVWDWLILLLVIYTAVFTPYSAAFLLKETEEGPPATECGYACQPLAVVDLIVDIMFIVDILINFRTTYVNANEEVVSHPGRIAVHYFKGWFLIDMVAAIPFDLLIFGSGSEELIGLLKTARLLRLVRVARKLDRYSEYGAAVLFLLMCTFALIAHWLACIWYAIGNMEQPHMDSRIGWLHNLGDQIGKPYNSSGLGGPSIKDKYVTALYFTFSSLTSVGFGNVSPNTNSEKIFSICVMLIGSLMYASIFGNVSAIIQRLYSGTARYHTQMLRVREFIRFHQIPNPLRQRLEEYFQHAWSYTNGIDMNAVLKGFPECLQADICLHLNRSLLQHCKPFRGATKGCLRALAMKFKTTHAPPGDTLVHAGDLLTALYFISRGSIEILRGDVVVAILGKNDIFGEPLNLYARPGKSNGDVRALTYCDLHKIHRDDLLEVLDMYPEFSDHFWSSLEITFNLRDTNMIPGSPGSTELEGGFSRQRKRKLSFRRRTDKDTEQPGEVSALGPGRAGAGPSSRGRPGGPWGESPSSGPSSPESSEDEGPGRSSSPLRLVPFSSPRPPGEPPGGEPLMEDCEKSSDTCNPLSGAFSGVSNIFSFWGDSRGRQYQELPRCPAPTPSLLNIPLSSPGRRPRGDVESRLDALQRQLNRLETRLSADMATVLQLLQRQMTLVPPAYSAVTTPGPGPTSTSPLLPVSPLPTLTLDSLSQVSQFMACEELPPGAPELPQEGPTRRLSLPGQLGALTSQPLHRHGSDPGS

| IC50 (Kv1.3 potassium channel) [nM] | Structure (SMILES) | IC50 (hERG channel) [µM] |
| --- | --- | --- |
| < 100 | C[C@@H](O)CN1C[C@H](c2c(O)ccc(Cl)c2Cl)CC1=O [Compound 53, (S)-4-(2,3-dichloro-6-hydroxyphenyl)-1-((R)-2-hydroxypropyl)pyrrolidin-2-one] | > 30 |
| < 10000 | CC1[C@@H](c2c(O)ccc(Cl)c2Cl)CC(=O)N1CCO (stereo in doubt) [Compound 80, (4R,5R)-4-(2,3-dichloro-6-hydroxyphenyl)-1-(2-hydroxyethyl)-5-methylpyrrolidin-2-one] |  |
| < 100 | O=C1C[C@@H](c2c(O)ccc(Cl)c2Cl)CCN1[C@H]1CCNC1 (single isomer, unassigned) [Compound 2, 4-(2,3-dichloro-6-hydroxyphenyl)-1-[pyrrolidin-3-yl]piperidin-2-one] | > 30 |
| < 100 | Cn1cc(N2CC(c3c(O)ccc(Cl)c3Cl)CC2=O)ccc1=O (stereo not drawn) [Compound 57, 5-[4-(2,3-dichloro-6-hydroxyphenyl)-2-oxopyrrolidin-1-yl]-1-methylpyridin-2-one] | > 10 |
| < 100 | O=C1C[C@@H](c2c(O)ccc(Cl)c2Cl)CN1c1cn[nH]c1 [Compound 58, (S)-4-(2,3-dichloro-6-hydroxyphenyl)-1-(1H-pyrazol-4-yl)pyrrolidin-2-one] | > 30 |
| < 100 | O=C1C[C@@H](c2c(O)ccc(Cl)c2Cl)CN1c1cnn(CCO)c1 [Compound 69, (S)-4-(2,3-dichloro-6-hydroxyphenyl)-1-(1-(2-hydroxyethyl)-1H-pyrazol-4-yl)pyrrolidin-2-one] |  |
| < 100 | C[C@H](O)CN1C[C@H](c2c(O)ccc(Cl)c2Cl)CC1=O [Compound 54, (4S)-4-(2,3-dichloro-6-hydroxyphenyl)-1-[(2S)-2-hydroxypropyl]pyrrolidin-2-one] | > 30 |
| < 100 | O=C1C[C@@H](c2c(O)ccc(Cl)c2Cl)CN1[C@H]1C[C@](O)(CO)C1 (single isomer, unassigned; isomer 4) [Compound 71] | > 100 |
| < 1000 | O=C1C[C@@H](c2c(O)ccc(Cl)c2Cl)CN1c1cccnc1 [Compound 63, (S)-4-(2,3-dichloro-6-hydroxyphenyl)-1-(pyridin-3-yl)pyrrolidin-2-one] |  |
| < 1000 | O=C1O[C@H](c2c(O)ccc(Cl)c2Cl)CN1CCO (single isomer, unassigned; isomer 1) [Compound 93, 5-(2,3-dichloro-6-hydroxyphenyl)-3-(2-hydroxyethyl)oxazolidin-2-one isomer 1] | > 100 |
| < 100 | O=C1C[C@H](c2c(O)ccc(Cl)c2Cl)CN1[C@@H]1CCNC1 (single isomer, unassigned) [Compound 13, 4-(2,3-dichloro-6-hydroxyphenyl)-[1,3-bipyrrolidin]-2-one] | > 10 |
| < 100 | C[C@H]1[C@H](c2c(O)ccc(Cl)c2Cl)NC(=O)N1CCCO (relative stereo) [Compound 101, (4S,5S)-rel-4-(2,3-dichloro-6-hydroxyphenyl)-1-(3-hydroxypropyl)-5-methylimidazolidin-2-one] | > 30 |
| < 1000 | O=C1C[C@@H](c2c(O)ccc(Cl)c2Cl)CCN1[C@@H]1CCNC1 (single isomer, unassigned) [Compound 4, 4-(2,3-dichloro-6-hydroxyphenyl)-1-[pyrrolidin-3-yl]piperidin-2-one] |  |
| < 100 | N[C@H](CO)CN1C[C@H](c2c(O)ccc(Cl)c2Cl)CC1=O [Compound 50, (4S)-1-[(2S)-2-amino-3-hydroxypropyl]-4-(2,3-dichloro-6-hydroxyphenyl)pyrrolidin-2-one] |  |
| < 30000 | O=C1CO[C@@H](c2c(O)ccc(Cl)c2Cl)CN1CCO (single isomer, unassigned; isomer 2) [Compound 96, 6-(2,3-dichloro-6-hydroxyphenyl)-4-(2-hydroxyethyl)morpholin-3-one isomer 2] |  |
| < 1000 | O=C1N[C@H](c2c(O)ccc(Cl)c2Cl)CCN1[C@H]1CCNC1 (single isomer, unassigned) [Compound 10, 4-(2,3-dichloro-6-hydroxyphenyl)-1-[pyrrolidin-3-yl]-tetrahydropyrimidin-2(1H)-one] |  |
| < 10000 | CC1[C@@H](c2c(O)ccc(Cl)c2Cl)CC(=O)N1C[C@H](O)CO (stereo in doubt) [Compound 78, (4R,5R)-4-(2,3-dichloro-6-hydroxyphenyl)-1-[(2S)-2,3-dihydroxypropyl]-5-methylpyrrolidin-2-one] |  |
| < 10000 | Cc1cc(N2C[C@H](c3c(O)ccc(Cl)c3Cl)CC2=O)no1 [Compound 73, (S)-4-(2,3-dichloro-6-hydroxyphenyl)-1-(5-methylisoxazol-3-yl)pyrrolidin-2-one] |  |
| < 30000 | O=C1CN[C@H](c2c(O)ccc(Cl)c2Cl)CN1C1CNC1 (single isomer, unassigned; isomer 2) [Compound 98, 1-(azetidin-3-yl)-5-(2,3-dichloro-6-hydroxyphenyl)piperazin-2-one isomer 2] |  |
| < 10000 | C[C@@H]1C(=O)N(C2CNC2)C[C@H]1c1c(O)ccc(Cl)c1Cl (single isomer, unassigned; isomer 2) [Compound 88, 1-(azetidin-3-yl)-4-(2,3-dichloro-6-hydroxyphenyl)-3-methylpyrrolidin-2-one isomer 2] |  |

| IC50 (Kv1.3 potassium channel) [nM] | Structure (SMILES) | IC50 (hERG channel) [µM] |
| --- | --- | --- |
| < 1000 | C[C@@H]1[C@H](c2c(O)ccc(Cl)c2Cl)CC(=O)N1CCO [Compound 84, (4S,5R)-4-(2,3-dichloro-6-hydroxyphenyl)-1-(2-hydroxyethyl)-5-methylpyrrolidin-2-one] |  |
| < 1000 | O=C1C[C@@H](c2c(O)ccc(Cl)c2Cl)CN1C(CO)CO [Compound 18, (4S)-4-(2,3-dichloro-6-hydroxyphenyl)-1-(1,3-dihydroxypropan-2-yl)pyrrolidin-2-one] |  |
| < 1000 | O=C1CC[C@@H](c2c(O)ccc(Cl)c2Cl)CN1[C@H]1CCNC1 (single isomer, unassigned) [Compound 6, 5-(2,3-dichloro-6-hydroxyphenyl)-1-[pyrrolidin-3-yl]piperidin-2-one] |  |
| < 10000 | N[C@@H]1C(=O)N(C2CNC2)C[C@H]1c1c(O)ccc(Cl)c1Cl [Compound 91, (3S,4R)-3-amino-1-(azetidin-3-yl)-4-(2,3-dichloro-6-hydroxyphenyl)pyrrolidin-2-one] |  |
| < 1000 | O=C1N[C@@H](c2c(O)ccc(Cl)c2Cl)CCN1[C@H]1CCNC1 (single isomer, unassigned) [Compound 8, 4-(2,3-dichloro-6-hydroxyphenyl)-1-[pyrrolidin-3-yl]-tetrahydropyrimidin-2(1H)-one] |  |
| < 1000 | CC(C)(O)CCN1C[C@H](c2c(O)ccc(Cl)c2Cl)CC1=O [Compound 45, (S)-4-(2,3-dichloro-6-hydroxyphenyl)-1-(3-hydroxy-3-methylbutyl)pyrrolidin-2-one] |  |
| < 100 | C[C@H](O)CCN1C[C@H](c2c(O)ccc(Cl)c2Cl)CC1=O (single isomer, unassigned; isomer 2) [Compound 48] |  |
| < 10000 | C[C@H]1[C@@H](c2c(O)ccc(Cl)c2Cl)CC(=O)N1C1CNC1 [Compound 83, (4R,5S)-1-(azetidin-3-yl)-4-(2,3-dichloro-6-hydroxyphenyl)-5-methylpyrrolidin-2-one] |  |
| < 1000 | Cn1cnc(N2C[C@H](c3c(O)ccc(Cl)c3Cl)CC2=O)c1 [Compound 59, (S)-4-(2,3-dichloro-6-hydroxyphenyl)-1-(1-methyl-1H-imidazol-4-yl)pyrrolidin-2-one] |  |
| < 100 | C[C@@H](O)CCN1C[C@H](c2c(O)ccc(Cl)c2Cl)CC1=O (single isomer, unassigned; isomer 1) [Compound 47] |  |
| < 1000 | O=C1C[C@@H](c2c(O)ccc(Cl)c2Cl)CN1[C@H]1CCOC1 (single isomer, unassigned; isomer 1) [Compound 27] |  |
| < 1000 | O=C1C[C@H](c2c(O)ccc(Cl)c2Cl)CCN1[C@@H]1CCNC1 (single isomer, unassigned) [Compound 3, 4-(2,3-dichloro-6-hydroxyphenyl)-1-[pyrrolidin-3-yl]piperidin-2-one] |  |
| < 10000 | C[C@H]1C(=O)N(C2CNC2)C[C@@H]1c1c(O)ccc(Cl)c1Cl (single isomer, unassigned; isomer 3) [Compound 89, 1-(azetidin-3-yl)-4-(2,3-dichloro-6-hydroxyphenyl)-3-methylpyrrolidin-2-one isomer 3] |  |
| < 30000 | C[C@H]1[C@@H](c2c(O)ccc(Cl)c2Cl)CC(=O)N1CCO [Compound 85, (4R,5S)-4-(2,3-dichloro-6-hydroxyphenyl)-1-(2-hydroxyethyl)-5-methylpyrrolidin-2-one] |  |
| < 1000 | C[C@H]1C(=O)N(C2CNC2)C[C@H]1c1c(O)ccc(Cl)c1Cl (single isomer, unassigned; isomer 1) [Compound 87, 1-(azetidin-3-yl)-4-(2,3-dichloro-6-hydroxyphenyl)-3-methylpyrrolidin-2-one isomer 1] |  |
| < 1000 | O=C1CN[C@@H](c2c(O)ccc(Cl)c2Cl)CN1C1CNC1 (single isomer, unassigned; isomer 1) [Compound 97, 1-(azetidin-3-yl)-5-(2,3-dichloro-6-hydroxyphenyl)piperazin-2-one isomer 1] |  |
| < 1000 | O=C1C[C@@H](c2c(O)ccc(Cl)c2Cl)CN1C1CCOC1 (single isomer, unassigned; isomer 2) [Compound 28] |  |
| < 100 | N[C@@H](CO)CN1C[C@H](c2c(O)ccc(Cl)c2Cl)CC1=O [Compound 49, (4S)-1-[(2R)-2-amino-3-hydroxypropyl]-4-(2,3-dichloro-6-hydroxyphenyl)pyrrolidin-2-one] |  |
| < 1000 | Cc1cc(N2C[C@H](c3c(O)ccc(Cl)c3Cl)CC2=O)sn1 [Compound 60, (S)-4-(2,3-dichloro-6-hydroxyphenyl)-1-(3-methylisothiazol-5-yl)pyrrolidin-2-one] |  |
